# Key:
# [1] = tested on: HaCat cells; experiment: Lactate dehydrogenase (LDH) release, HaCat cells; type: cell-based; conditions: 10 μM, FIG. 4B
# Description: FIG. 4: Antp-AAC-11-LZ (363-399) peptide induced necrotic cell death under low serum conditions. (A) SeAx or HaCat cells cultured in the absence of 10% FBS were left untreated or treated with 4 μM or 10 μM, respectively, of the Antp-AAC-11-LZ (363-399) peptide for the indicated durations. Cells were then analyzed by flow cytometry for PI staining. The results represent the mean number of PI-positive cells±S.D. from at least three independent experiments. (B) A549 and HaCat cells were plated at a densities of 4.5×10^3 in 96 well plates (100 μL total volume per well) and allowed to attach overnight in a 37° C. incubator (5% CO2). […] Lactate dehydrogenase (LDH) activity released in the culture medium was then assessed and data expressed as a percentage of the maximal level (Max) of LDH activity determined after total cell lysis±S.D. from at least three independent experiments.
# Cytoplasmic lactate dehydrogenase (LDH) release into the cell culture supernatant occurs upon damage of the plasma membrane, and it is therefore considered a typical hallmark of necrosis. […] LDH activity was measured using the CytoTox 96® assay (Promega) by the reduction of lactate to pyruvate in the presence of NAD^+. […] Visible wavelength absorbance data are collected using a standard 96-well plate reader. […]
# Necrosis was further assessed based on lactate dehydrogenase (LDH) activity release in the culture medium. […]
# [2] = tested on: solid tumor cell lines; experiment: Cell viability (MTT) of an array of solid tumor cell lines under low serum; type: cell-based; conditions: increasing concentrations, 24 hours, low serum conditions, FIG. 1B
# Description: (A) Karpas 1106, SU-DHL-5, SeAx and HUT-78 cells were plated at a densities of 6×10^3 in 96 well plates (100 μL total volume per well) and treated for 24 hours in a 37° C. incubator (5% CO2) with increasing concentrations of the Antp-AAC-11-LZ (363-399). 20 μL MTS reagent was then added to each well and plates were incubated for an additional 4 hours. Absorbance was measured at 490 nm using a 96-well plate reader. The extent to which the Antp-AAC-11-LZ (363-399) peptide inhibited cell proliferation was calculated as a percentage of the absorbance in each well containing the Antp-AAC-11-LZ (363-399) peptide relative to wells containing no peptide (negative control). […]
# Viability of cells cultured in the 96-well culture plates was assessed by measuring mitochondrial dehydrogenase activity, using the colorimetric CellTiter 96® AQueous One Solution Cell Proliferation Assay (Promega), according to the manufacturer′ instructions. […] The color can then be quantified using a simple colorimetric assay. The results are read on a multiwall scanning spectrophotometer (ELISA reader).
# The inventors evaluated the capacity of the Antp-AAC-11-LZ (363-399) peptide to induce cell death a panel of hematologic and solid tumor cell lines, both P53 positive and P53 negative, derived from different tissues of origin, under low serum conditions (0.5-5%). […]
substance,measurement,setting,value
Ac-RQIKIWFKKQNRRMKWKKAKLNAEKLKDFKIRLQYFARGLQVYIRQLRLALQGKT-NH2 [Antp-AAC-11-LZ (363-399)],LDH release in nonmalignant cells,[1],little LDH release
same,cell viability loss of the cancer cell lines,[2],marked cell viability loss

# From patent publication US10358469B2, “Methods and pharmaceutical compositions for the treatment of cancer” (INSERM (INSTITUT NATIONAL DE LA SANTÉ ET DE LA RECHERCHE …, priority 2014, dated 2019)
